In ChEMBL document CHEMBL4433262, “Synthesis and biological evaluation of novel benzo[c][1,2,5]thiadiazol-5-yl and thieno[3,2-c]- pyridin-2-yl imidazole derivatives as ALK5 inhibitors” (Bioorg Med Chem Lett, 2019):
Activity calls are given as the source filed them. The rule behind the calls is not given here.

What was measured:
TGF-beta receptor type-1 = target: T1, TGF-beta receptor type-1 (Homo sapiens, UniProt P36897); assay: Inhibition of human recombinant GST-tagged ALK5 expressed in Sf9 insect cells using casein as substrate incubated for 60 mins in presence of [33P]-ATP by scintillation counting method
T1 sequence (P36897 whole entry): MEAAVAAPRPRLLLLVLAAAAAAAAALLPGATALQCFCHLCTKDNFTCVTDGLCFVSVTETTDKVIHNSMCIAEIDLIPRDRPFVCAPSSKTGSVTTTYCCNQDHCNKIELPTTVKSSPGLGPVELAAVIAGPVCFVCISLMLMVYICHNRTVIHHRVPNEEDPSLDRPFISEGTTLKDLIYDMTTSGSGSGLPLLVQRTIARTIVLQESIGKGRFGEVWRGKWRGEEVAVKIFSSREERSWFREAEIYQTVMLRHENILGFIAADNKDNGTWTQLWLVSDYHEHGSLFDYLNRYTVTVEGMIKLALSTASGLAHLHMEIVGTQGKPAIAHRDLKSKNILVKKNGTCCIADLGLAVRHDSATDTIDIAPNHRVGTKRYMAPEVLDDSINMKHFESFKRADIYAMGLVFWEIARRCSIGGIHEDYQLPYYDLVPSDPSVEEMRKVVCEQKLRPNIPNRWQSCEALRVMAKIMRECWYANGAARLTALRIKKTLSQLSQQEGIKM

[1] = target: T2, Mitogen-activated protein kinase 14 (Homo sapiens, UniProt Q16539); assay: Inhibition of human recombinant untagged p38alpha expressed in Escherichia coli using ATF2 as substrate incubated for 60 mins in presence of [33P]-ATP by scintillation counting method
[2] = target: T3, TGF-beta receptor type-1 (Homo sapiens) (UniProt P36897); assay: Potency index, ratio of IC50 for EW-7197 to IC50 for test compound for inhibition of human recombinant GST-tagged ALK5 expressed in Sf9 insect cells using casein as substrate incubated for 60 mins in presence of [33P]-ATP by scintillation counting method
T3 sequence (whole entry): T1 sequence (P36897 whole entry)

[3] = target: T2, Mitogen-activated protein kinase 14; assay: Potency index, ratio of IC50 for LY-2157299 to IC50 for test compound for inhibition of human recombinant untagged p38alpha expressed in Escherichia coli using ATF2 as substrate incubated for 60 mins in presence of [33P]-ATP by scintillation counting method
[4] = target: T3, TGF-beta receptor type-1 (Homo sapiens); assay: Inhibition of ALK5 in human HepG2 cells assessed as reduction in TGFbeta1-induced Smad2 phosphorylation incubated for 36 hrs by Western blot analysis; type: cell-based
[5] = target: T3, TGF-beta receptor type-1 (Homo sapiens); assay: Inhibition of ALK5 in human SPC-A1 cells assessed as reduction in TGFbeta1-induced Smad2 phosphorylation at 0.1 to 0.5 uM incubated for 36 hrs by Western blot analysis; type: cell-based
[6] = target: T3, TGF-beta receptor type-1 (Homo sapiens); assay: Inhibition of ALK5 in human HUVEC cells assessed as reduction in TGFbeta1-induced cell motility at 10 uM incubated for 0 to 48 hrs by wound healing assay; type: cell-based
[7] = target: T3, TGF-beta receptor type-1 (Homo sapiens); assay: Potency index, ratio of IC50 for LY-2157299 to IC50 for test compound for inhibition of human recombinant GST-tagged ALK5 expressed in Sf9 insect cells using casein as substrate incubated for 60 mins in presence of [33P]-ATP by scintillation counting method
[8] = target: T2, Mitogen-activated protein kinase 14; assay: Potency index, ratio of IC50 for EW-7197 to IC50 for test compound for inhibition of human recombinant untagged p38alpha expressed in Escherichia coli using ATF2 as substrate incubated for 60 mins in presence of [33P]-ATP by scintillation counting

T2 sequence (Q16539 whole entry): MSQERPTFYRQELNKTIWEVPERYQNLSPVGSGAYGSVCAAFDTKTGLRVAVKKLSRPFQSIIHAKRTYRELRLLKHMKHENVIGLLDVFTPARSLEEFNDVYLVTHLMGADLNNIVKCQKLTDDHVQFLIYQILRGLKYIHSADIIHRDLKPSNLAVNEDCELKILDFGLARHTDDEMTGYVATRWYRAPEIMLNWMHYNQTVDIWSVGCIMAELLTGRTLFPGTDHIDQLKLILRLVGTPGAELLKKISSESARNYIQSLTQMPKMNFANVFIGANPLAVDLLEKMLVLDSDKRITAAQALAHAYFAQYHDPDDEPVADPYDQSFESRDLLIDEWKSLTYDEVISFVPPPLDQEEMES

Structure (SMILES) | IC50 (TGF-beta receptor type-1) | IC50 [1] | other results
Cc1cccc(-c2[nH]c(CNc3ccc(F)cc3)nc2-c2cc3cnccc3s2)n1 | 42 nM | 4840 nM | –
Cc1ccc(NCc2nc(-c3ccc4nsnc4c3)c(-c3cccc(C)n3)[nH]2)cc1 | 22 nM | 7700 nM | –
Cc1cccc(-c2[nH]c(CNc3ccccc3C)nc2-c2ccc3nsnc3c2)n1 | 21 nM | 899 nM | –
Cc1ccc(NCc2nc(-c3cc4cnccc4s3)c(-c3cccc(C)n3)[nH]2)cc1 | 43 nM | > 10000 nM | –
Cc1cccc(-c2[nH]c(CNc3ccccc3)nc2-c2cc3cnccc3s2)n1 | 25 nM | 4400 nM | –
Cc1cccc(-c2[nH]c(CNc3ccccc3F)nc2-c2cc3cnccc3s2)n1 | 23 nM | 6060 nM | –
Cc1cccc(NCc2nc(-c3cc4cnccc4s3)c(-c3cccc(C)n3)[nH]2)c1 | 19 nM | 2220 nM | –

These reach a lower IC50 (TGF-beta receptor type-1). Values come first.

IC50 (TGF-beta receptor type-1) | IC50 [1] | Structure (SMILES) | other results
17 nM | 1520 nM | Cc1cccc(-c2[nH]c(CNc3cccc(F)c3)nc2-c2cc3cnccc3s2)n1 | –
14 nM | 2440 nM | Cc1cccc(-c2[nH]c(CNc3ccccc3C)nc2-c2cc3cnccc3s2)n1 | –
14 nM | 763 nM | Cc1cccc(-c2[nH]c(CNc3ccccc3)nc2-c2ccc3nsnc3c2)n1 | –
13 nM | 513 nM | Cc1cccc(NCc2nc(-c3ccc4nsnc4c3)c(-c3cccc(C)n3)[nH]2)c1 | –
11 nM | 1170 nM | Cc1cccc(-c2[nH]c(CNc3ccccc3F)nc2-c2ccc3nsnc3c2)n1 | –
10 nM | 831 nM | Cc1cccc(-c2[nH]c(CNc3ccc(F)cc3)nc2-c2ccc3nsnc3c2)n1 | –
8 nM | 148 nM | Cc1cccc(-c2[nH]c(CNc3cccc(F)c3)nc2-c2ccc3nsnc3c2)n1 | Ratio IC50 [2]: 1.8; Ratio IC50 [3]: 3.3; inhibition [4]: Dose-dependent effect; inhibition [5]: Active; inhibition [6]: Active; Ratio IC50 [7]: 16.1; Ratio IC50 [8]: 19.9
